Reference: patent US7767850B2, “S-[2-[(1-iminoethy)amino]ethyl]-2-methyl-L-cysteine maleate hydrochloride crystalline salt” (Pfizer Inc., priority 2003, dated 2010)

Assays:
[1] = Moisture sorption study by DVS moisture balance; format: physicochemical; conditions: 25° C., sample of Example 10
Excerpt: FIG. 4 is a plot of a moisture sorption study of the crystalline S-[2-[(1-Iminoethyl)amino]ethyl]-2-methyl-L-cysteine maleate hydrochloride. […] Between 70 and 9% R.H., another 58% moisture was taken up by the solids. It is presumed that at 90% R.H. the crystal structure was destroyed to produce highly hygroscopic amorphous solids. During the de-sorption cycle (from 90 to 30% R.H.), these solids transformed into a mixture of form II of the crystalline S-[2-[(1-Iminoethyl)amino]ethyl]-2-methyl-L-cysteine maleate and amorphous zwitterion with excess hydrogen chloride. Subsequent de-sorption and re-sorption behavior was very similar to form II of the crystalline S-[2-[(1-Iminoethyl)amino]ethyl]-2-methyl-L-cysteine maleate. Powder x-ray analysis on the solids at the end of the experiment confirmed the presence of both form II the crystalline S-[2-[(1-Iminoethyl)amino]ethyl]-2-methyl-L-cysteine maleate and amorphous solids.

[2] = Bulk and tapped powder density; format: physicochemical; conditions: orderly packed agglomerates of Example 20
Excerpt: (§1) Orderly packed agglomerates of S-[2-[(1-Iminoethyl)amino]ethyl]-2-methyl-L-cysteine maleate hydrochloride crystals made in Example 20 were studied to determine its powder characteristics that are relevant to the development of a pharmaceutical composition with S-[2-[(1-Iminoethyl)amino]ethyl]-2-methyl-L-cysteine maleate hydrochloride together with a pharmaceutically acceptable carrier. Before testing, the solids were passed through 80-mesh screen corresponding to 177 micrometer opening in order to fragment some very large loose aggregates of the orderly packed agglomerates. The properties tested included powder flow characteristics, powder particle size distribution, powder bulk and tapped density and powder compressibility and compaction.
Bulk powder density was evaluated as the mass of material within a 50-ml graduated cylinder.

[3] = Direct compression without excipients: tablet hardness and disintegration; format: physicochemical; conditions: for tablet hardness: 100-mg compacts, no excipients
Experimental: The powder was evaluated for direct compression without any excipients. Compacts of 100-mg in weight were manufactured using an 8/32 inch (6.35-mm) round concave tooling. Tablets were compressed at various compression forces and evaluated for strength, thickness and disintegration. […] Relatively strong small tablets ( 8/32 inch), as hard as 11-kP, are possible with compression force between 900 and 1000 kg. Tablet strength reaches an apparent maximum between 900 and 1000 kg compression force. Minor adhesion to the punch and die walls were observed during compression experiments. However, the sticking was considered to be a minor problem and could easily be resolved by using an appropriate lubricant. Tablet disintegration times were also evaluated for compacts of orderly packed agglomerates of S-[2-[(1-Iminoethyl)amino]ethyl]-2-methyl-L-cysteine maleate hydrochloride crystals. Three tablets were compressed with compression forces between 500 and 600, corresponding to 8 kP tablet hardness for this material.

physchem = format: physicochemical
Excerpt: S-[2-[(1-Iminoethyl)amino]ethyl]-2-methyl-L-cysteine maleate hydrochloride crystals are birefringent with positive elongation when analyzed by polarized light microscopy.
Examples 7 and 8 only differ in the nature of agitation afforded to the system. […] The bead was agitated with a magnetic plate. […] Both the examples used 2.0 molar equivalents of maleic acid and 0.5 molar equivalent of HCl for each mole of S-[2-[(1-Iminoethyl)amino]ethyl]-2-methyl-L-cysteine. […] In Example 9, the water content of the system was 2.3% before the addition of acetonitrile, while the ratio of acetonitrile to DMF was 1.98 on weight/weight basis.

[4] = Powder flow, aperture flow tester; format: physicochemical
Excerpt: as §1, with “compaction. Powder flow was evaluated using an aperture flow tester, measured as the smallest opening at which the powder freely flows through. The powder flow test was repeatedly successful through a 6-mm aperture opening. A powder flow of 6-mm is considered good for formulation development of S-[2-[(1-Iminoethyl)amino]ethyl]-2-methyl-L-cysteine maleate hydrochloride crystals. Successful repetition of flow through a narrower 4-mm opening was, however, dependent on how the powder was introduced to the tester.” for “compaction.”

[5] = format: physicochemical
Excerpt: Additionally, the presence of excess maleic acid dramatically increases the solubility.
1-Butanol was selected as the best solvent to explore the possibility of utilizing a high boiling solvent that can easily be exchanged with water from the upstream aqueous chromatography purification step. […] This process was again designed to be very similar to the DMF/acetonitrile process. Following is a description of the initial process run at the 1 L scale.

[6] = Particle size distribution by sieve analysis; format: physicochemical
Excerpt: as §1
Particle size distribution of the powder was measured using sieve analysis. The mean particle size distribution was calculated using the geometric mean method. […] Only 1.63% of material was considered as fines, less than 75-μm, with more than 90% within 105-250-μm. More than 75% of the material was within 105-150-μm. The tight range in the powder particle size distribution for orderly packed agglomerates is between 100 and 200-μm, which is highly desirable for the development of a pharmaceutical composition with S-[2-[(1-Iminoethyl)amino]ethyl]-2-methyl-L-cysteine maleate hydrochloride together with a pharmaceutically acceptable carrier.

[7] = orderly packed agglomerates of Example 20

CC(=N)NCCSC[C@](C)(N)C(=O)O.Cl.O=C(O)/C=C\C(=O)O [S-[2-[(1-Iminoethyl)amino]ethyl]-2-methyl-L-cysteine maleate hydrochloride]
moisture uptake ([1]; between 0 and 70% relative humidity): approximately 1.5%
further moisture taken up by the solids ([1]; between 70 and 9% R.H. as printed): 58%
bulk powder density [2]: 0.41 g/mL
tapped density [2]: 0.50 g/mL
tablet hardness ([3]; 8/32 inch, compression force between 900 and 1000 kg): ≤ 11 kP
tablet hardness ([3]; compression forces between 500 and 600): 8 kP
tablet disintegration time ([3]; three tablets, compression forces between 500 and 600, 8 kP hardness): less than 2 minutes
solubility in water (in words) (physchem): highly soluble in water
solubility (physchem; water): > 150 mg/mL
compressibility index [4, 7]: 17.8%
powder flow, smallest aperture opening at which the powder freely flows through ([4]; orderly packed agglomerates of Example 20, passed through 80-mesh screen): 6 mm
solubility in 1-butanol [5]: 0.05 wt %
solubility in methanol [5]: 6.2 wt %
fraction of fines, less than 75-μm [6, 7]: 1.63%
fraction of material within 105-150-μm [6, 7]: More than 75%
fraction of material within 105-250-μm [6, 7]: more than 90%
mean particle size ([6]; orderly packed agglomerates of Example 20, geometric mean method): 134 micrometers

CC(=N)NCCSC[C@](C)(N)C(=O)O [S-[2-[(1-Iminoethyl)amino]ethyl]-2-methyl-L-cysteine]
solubility in water (in words) (physchem): highly soluble in water
